Target: T1, BaF3 BRAF-KIAA1549 fusion cells (Homo sapiens, UniProt P15056)
T1 construct: The BRAF-KIAA1549 fusion mutant was subcloned into pMXs-IRES-Blasticidin (RTV-016, Cell Biolabs, San Diego, CA); No tag given; Q9HCM3 (UPF0606 protein KIAA1549)
Experiment: BaF3 BRAF-KIAA1549 fusion cell proliferation assay (CellTiterGlo, 96 hours)
Type: cell-based
Method: Retroviral Production: The BRAF-KIAA1549 fusion mutant was subcloned into pMXs-IRES-Blasticidin (RTV-016, Cell Biolabs, San Diego, CA). Retrovirus was produced by transfection of HEK 293T cells with the retroviral BRAF mutant expression vector pMXs-IRES-Blasticidin (RTV-016, Cell Biolabs), pCMV-Gag-Pol vector and pCMV-VSV-G-Envelope vector. Briefly, HEK 293T cells were plated in Poly-D-lysine coated 6-well plate (2.5×10^5 cells per well) and incubated overnight. The next day, retroviral plasmids (1 μg of BRAF-KIAA fusion mutant, 0.32 μg of pCMV-Gag-Pol and 0.165 μg pCMV-VSV-G) were mixed in 300 μL of Optimem (31985, Life Technologies). The mixture was incubated at room temperature for 5 minutes and then added to Optimem containing transfection reagent Lipofectamine (11668, Invitrogen) and incubated for 20 minutes. The mixture was then added dropwise to HEK 293T cells. The next day the medium was replaced with fresh culture medium and retrovirus was harvested at 24 hours.
Generation of BRAF-KIAA1549 fusion stable cell line: BaF3 cells were plated in V-bottom 96 well plate (COSTAR #3894) in 80 μL of RPMI/10% FBS and 0.01 ng/mL mouse IL-3, supplemented with 8 μg/mL polybrene (4×10^4 cells/well). Cells were transduced with 20 μL of BRAF-KIAA1549 fusion viral supernatant by centrifuging for 30 minutes at 1000 rpm. Cells were placed in a 37° C. incubator overnight. Next day 100 μL of RPMI/10% FBS and 0.01 ng/mL mouse IL-3 was added. After 24 hours, 100 μL of cells were transferred to a 24 well plate containing 900 μL of RPM/10% FBS and 15 μg/mL Blasticidin. Contents of the 24 well plate were sampled for cell viability via CellTiterGlo (Promega) over a 2-week period.
Assay for cell proliferation: BaF3 BRAF-KIAA1549 fusion cells were resuspended at 1.5×10^5 c/mL in RPMI containing 10% Heat Inactivated FBS, 1% L-glutamine and dispensed in duplicate (7×10^4 c/well) into 384 well plates. To determine the effect of compound on cell proliferation, BaF3 BRAF-KIAA1549 fusion cells were incubated for 96 hours in the presence of vehicle control (DMSO) or compound at varying concentrations. Inhibition of cell growth was determined by luminescent quantification (Envision by Perkin Elmer) of intracellular ATP content using CellTiterGlo (Promega), according to the protocol provided by the manufacturer. To determine the IC50 values, the vehicle-treated cells were normalized as viable cells and analyzed using the CDD Vault, Collaborative Drug Discovery, Burlingame, CA (the Levenberg-Marquardt algorithm; Levenberg, K., […]; Marquardt, D., 1963).
Tables A1 and A2 assign each compound a code for potency in the BaF3 BRAF-KIAA1549 fusion cell proliferation assay: A, B, C, or D. According to the code, A represents an IC50 value <20 nM; B represents an IC50 value ≥20 nM and <100 nM; C represents an IC50 value ≥100 nM and <500 nM; and D represents an IC50 value ≥500 nM.

T1 sequence (P15056 whole entry, change not shown, the tested form may be a part): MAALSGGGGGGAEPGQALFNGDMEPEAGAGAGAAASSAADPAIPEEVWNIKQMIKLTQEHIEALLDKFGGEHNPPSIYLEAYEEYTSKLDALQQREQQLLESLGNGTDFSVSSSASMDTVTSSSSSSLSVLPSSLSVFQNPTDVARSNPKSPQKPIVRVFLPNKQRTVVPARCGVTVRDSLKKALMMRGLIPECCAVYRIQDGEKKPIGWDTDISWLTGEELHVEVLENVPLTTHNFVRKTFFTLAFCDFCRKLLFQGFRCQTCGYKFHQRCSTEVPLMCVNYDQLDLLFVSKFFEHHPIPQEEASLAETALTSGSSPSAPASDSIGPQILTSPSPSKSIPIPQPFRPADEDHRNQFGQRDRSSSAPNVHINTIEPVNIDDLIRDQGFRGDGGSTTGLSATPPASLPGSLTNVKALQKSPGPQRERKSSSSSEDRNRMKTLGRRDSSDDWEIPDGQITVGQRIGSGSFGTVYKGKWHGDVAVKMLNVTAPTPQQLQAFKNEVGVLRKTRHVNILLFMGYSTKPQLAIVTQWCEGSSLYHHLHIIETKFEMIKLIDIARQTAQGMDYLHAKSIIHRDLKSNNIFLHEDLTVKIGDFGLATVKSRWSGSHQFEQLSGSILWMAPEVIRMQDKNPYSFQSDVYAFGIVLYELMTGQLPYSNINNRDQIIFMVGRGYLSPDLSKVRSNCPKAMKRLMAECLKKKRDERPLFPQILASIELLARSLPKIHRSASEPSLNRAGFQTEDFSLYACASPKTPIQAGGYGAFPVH

Compound: CNc1cc2ncc(-c3cc(NC(=O)C[C@@H]4C[C@H](C(F)(F)F)CCO4)ccc3C)cc2cn1 (single isomer, unassigned) [Compound 7, N-(4-Methyl-3-(7-(methylamino)-1,6-naphthyridin-3-yl)phenyl)-2-(4-(trifluoromethyl)tetrahydro-2H-pyran-2-yl)acetamide]
- GI50 (Table A1): < 20 nM

Compound: CNc1cc2ncc(-c3cc(NC(=O)C[C@@H]4C[C@H](C(F)(F)F)CCO4)cnc3C)cc2cn1 (single isomer, unassigned) [Compound 35]
- GI50 (Table A1): 20 to 100 nM

Compound: CNc1cc2ncc(-c3cc(NC(=O)C[C@H]4C[C@H](C(F)(F)F)CCO4)cnc3C)cc2cn1 (single isomer, unassigned) [Compound 36]
- GI50 (Table A1): 100 to 500 nM

Compound: CNc1cc2ncc(-c3cc(NC(=O)[C@H](C)n4cnc(C(F)(F)F)n4)ccc3C)cc2cn1 (single isomer, unassigned) [Compound 68]
- GI50 (Table A1): 20 to 100 nM

Compound: CNc1cc2ncc(-c3cc(NC(=O)[C@@H](C)n4cnc(C(F)(F)F)n4)ccc3C)cc2cn1 (single isomer, unassigned) [Compound 69]
- GI50 (Table A1): 100 to 500 nM

Compound: CNc1cc2ncc(-c3cc(NC(=O)c4cccc5c4CCC[C@@H]5O)cnc3C)cc2cn1 (single isomer, unassigned) [Compound 207]
- GI50 (Table A2): ≥ 500 nM

Compound: CNc1cc2ncc(-c3cc(NC(=O)c4cccc5c4CCC[C@H]5O)cnc3C)cc2cn1 (single isomer, unassigned) [Compound 208]
- GI50 (Table A2): ≥ 500 nM

Compound: CNc1cc2ncc(-c3cc(NC(=O)c4cnc5n4C[C@H](C)CC5)ccc3C)cc2cn1 (single isomer, unassigned) [Compound 230]
- GI50 (Table A2): 20 to 100 nM

Compound: CNc1cc2ncc(-c3cc(NC(=O)c4cnc5n4C[C@@H](C)CC5)ccc3C)cc2cn1 (single isomer, unassigned) [Compound 231]
- GI50 (Table A2): 20 to 100 nM

Compound: CNc1cc2ncc(-c3cc(NC(=O)c4noc5c4C[C@@H](C)CC5)ccc3C)cc2cn1 (single isomer, unassigned) [Compound 236]
- GI50 (Table A2): 20 to 100 nM

Compound: CNc1cc2ncc(-c3cc(NC(=O)c4noc5c4C[C@H](C)CC5)ccc3C)cc2cn1 (single isomer, unassigned) [Compound 237]
- GI50 (Table A2): 20 to 100 nM

Compound: CNc1cc2ncc(-c3cc(NC(=O)c4cc([C@@H](O)C(C)(F)F)ccn4)cnc3C)cc2cn1 (single isomer, unassigned) [Compound 248]
- GI50 (Table A2): 20 to 100 nM

Compound: CNc1cc2ncc(-c3cc(NC(=O)c4cc([C@H](O)C(C)(F)F)ccn4)cnc3C)cc2cn1 (single isomer, unassigned) [Compound 249]
- GI50 (Table A2): 20 to 100 nM

Compound: CNc1cc2ncc(-c3cc(NC(=O)c4cnc5n4C[C@@H](C)CC5)cnc3C)cc2cn1 (single isomer, unassigned) [Compound 258]
- GI50 (Table A2): 20 to 100 nM

Compound: CNc1cc2ncc(-c3cc(NC(=O)c4cnc5n4C[C@H](C)CC5)cnc3C)cc2cn1 (single isomer, unassigned) [Compound 259]
- GI50 (Table A2): 20 to 100 nM

Compound: CNc1cc2ncc(-c3cc(NC(=O)N4CC[C@@H](CC(F)(F)F)C4)ccc3C)cc2cn1 (single isomer, unassigned) [Compound 267]
- GI50 (Table A2): < 20 nM

Compound: CNc1cc2ncc(-c3cc(NC(=O)c4cc(C(F)(F)F)ccn4)ccc3C)cc2cn1 [Compound 1, N-(4-methyl-3-(7-(methylamino)-1,6-naphthyridin-3-yl)phenyl)-4-(trifluoromethyl)picolinamide]
- GI50 (Table A1): < 20 nM

Compound: CNc1cc2ncc(-c3cc(NC(=O)c4ccnc(C(F)(F)F)c4)ccc3C)cc2cn1 [Compound 2, N-(4-methyl-3-(7-(methylamino)-1,6-naphthyridin-3-yl)phenyl)-2-(trifluoromethyl)isonicotinamide]
- GI50 (Table A1): 20 to 100 nM

Compound: CNc1cc2ncc(-c3cc(NC(=O)c4cncc(C(F)(F)F)c4)ccc3C)cc2cn1 [Compound 3, N-(4-methyl-3-(7-(methylamino)-1,6-naphthyridin-3-yl)phenyl)-5-(trifluoromethyl)nicotinamide]
- GI50 (Table A1): < 20 nM

Compound: CNc1cc2ncc(-c3cc(NC(=O)c4cccc(N(C)C)c4)ccc3C)cc2cn1 [Compound 4, 3-(Dimethylamino)-N-(4-methyl-3-(7-(methylamino)-1,6-naphthyridin-3-yl)phenyl)benzamide]
- GI50 (Table A1): < 20 nM

Compound: CNc1cc2ncc(-c3cc(NC(=O)c4cc(C(F)(F)F)c(C)cn4)ccc3C)cc2cn1 [Compound 5, 5-Methyl-N-(4-methyl-3-(7-(methylamino)-1,6-naphthyridin-3-yl)phenyl)-4-(trifluoromethyl)picolinamide]
- GI50 (Table A1): 20 to 100 nM

Compound: CNc1cc2ncc(-c3cc(NC(=O)c4nccc(C(F)(F)F)c4Cl)ccc3C)cc2cn1 [Compound 6, 3-Chloro-N-(4-methyl-3-(7-(methylamino)-1,6-naphthyridin-3-yl)phenyl)-4-(trifluoromethyl)picolinamide]
- GI50 (Table A1): < 20 nM

Compound: CNc1cc2ncc(-c3cc(NC(=O)c4ccnc(C(F)F)c4)ccc3C)cc2cn1 [Compound 8, 2-(Difluoromethyl)-N-(4-methyl-3-(7-(methylamino)-1,6-naphthyridin-3-yl)phenyl)isonicotinamide]
- GI50 (Table A1): 20 to 100 nM

Compound: CNc1cc2ncc(-c3cc(NC(=O)c4ccnc(C(C)(F)F)c4)ccc3C)cc2cn1 [Compound 9, 2-(1,1-difluoroethyl)-N-(4-methyl-3-(7-(methylamino)-1,6-naphthyridin-3-yl)phenyl)isonicotinamide]
- GI50 (Table A1): < 20 nM

Compound: CNc1cc2ncc(-c3cc(NC(=O)c4ccnc(C(C)(C)F)c4)ccc3C)cc2cn1 [Compound 10, 2-(2-Fluoropropan-2-yl)-N-(4-methyl-3-(7-(methylamino)-1,6-naphthyridin-3-yl)phenyl)isonicotinamide]
- GI50 (Table A1): < 20 nM

Compound: CNc1cc2ncc(-c3cc(NC(=O)c4cc(C(F)F)ccn4)ccc3C)cc2cn1 [Compound 11, 4-(Difluoromethyl)-N-(4-methyl-3-(7-(methylamino)-1,6-naphthyridin-3-yl)phenyl)picolinamide]
- GI50 (Table A1): 20 to 100 nM

Compound: CNc1cc2ncc(-c3cc(NC(=O)c4cc(C(C)(F)F)ccn4)ccc3C)cc2cn1 [Compound 12, 4-(1,1-Difluoroethyl)-N-(4-methyl-3-(7-(methylamino)-1,6-naphthyridin-3-yl)phenyl)picolinamide]
- GI50 (Table A1): 20 to 100 nM

Compound: CNc1cc2ncc(-c3cc(NC(=O)c4cc(C(C)(C)F)ccn4)ccc3C)cc2cn1 [Compound 13, 4-(2-Fluoropropan-2-yl)-N-(4-methyl-3-(7-(methylamino)-1,6-naphthyridin-3-yl)phenyl)picolinamide]
- GI50 (Table A1): 100 to 500 nM

Compound: CNc1cc2ncc(-c3cc(NC(=O)c4cc(C(C)(C)C#N)ccn4)ccc3C)cc2cn1 [Compound 14, 4-(2-Cyanopropan-2-yl)-N-(4-methyl-3-(7-(methylamino)-1,6-naphthyridin-3-yl)phenyl)picolinamide]
- GI50 (Table A1): < 20 nM

Compound: CNc1cc2ncc(-c3cc(NC(=O)c4cc(C5(C#N)CCC5)ccn4)ccc3C)cc2cn1 [Compound 15, 4-(1-Cyanocyclobutyl)-N-(4-methyl-3-(7-(methylamino)-1,6-naphthyridin-3-yl)phenyl)picolinamide]
- GI50 (Table A1): 20 to 100 nM

Compound: CNc1cc2ncc(-c3cc(NC(=O)c4cc(C5(C#N)CC5)ccn4)ccc3C)cc2cn1 [Compound 16, 4-(1-Cyanocyclopropyl)-N-(4-methyl-3-(7-(methylamino)-1,6-naphthyridin-3-yl)phenyl)picolinamide]
- GI50 (Table A1): < 20 nM

Compound: CNc1cc2ncc(-c3cc(NC(=O)c4ccnc(C5CC(F)(F)C5)c4)ccc3C)cc2cn1 [Compound 17, 2-(3,3-Difluorocyclobutyl)-N-(4-methyl-3-(7-(methylamino)-1,6-naphthyridin-3-yl)phenyl)isonicotinamide]
- GI50 (Table A1): < 20 nM

Compound: CNc1cc2ncc(-c3cc(NC(=O)c4ccnc(C5(F)CC5)c4)ccc3C)cc2cn1 [Compound 18, 2-(1-Fluorocyclopropyl)-N-(4-methyl-3-(7-(methylamino)-1,6-naphthyridin-3-yl)phenyl)isonicotinamide]
- GI50 (Table A1): < 20 nM

Compound: CNc1cc2ncc(-c3cc(NC(=O)c4cccc(N(C)C)c4)cnc3C)cc2cn1 [Compound 19, 3-(Dimethylamino)-N-(6-methyl-5-(7-(methylamino)-1,6-naphthyridin-3-yl)pyridin-3-yl)benzamide]
- GI50 (Table A1): < 20 nM

Reference: patent publication US20250017914A1, “6-AZA-QUINOLINE DERIVATIVES AND RELATED USES” (Black Diamond Therapeutics, Inc., priority 2021, published 2025)
